Measurements: patent US20070117743A1, “New antitumoral compounds” (priority 2003, published 2007)
Where a SMILES comes first, the peptide text is derived from it. Bridges are numbered along the chain shown (N, C = ends). [ ]: non-standard residue; d: D form. The star is where a group is joined. d(aIle) = CC[C@H](C)[C@@H](N)C(=O)O; d(aThr) = C[C@@H](O)[C@@H](N)C(=O)O; Hexanoyl(5-Me) = CC(C)CCCC(=O)*; Orn = NCCC[C@H](N)C(=O)O; Dhb = C/C=C(\N)C(=O)O

What was measured:
Assay type in all cases: cell-based, human
A-549 = assay: SRB colorimetric assay of cell growth and viability, A-549; settings: 48 hours exposure; for GI50: read-out: GI50 A-549; for CC50: read-out: LC50 A-549
SK-MEL-28 = assay: SRB colorimetric assay of cell growth and viability, SK-MEL-28; settings: 48 hours exposure; for CC50: read-out: LC50 MEL-28
HT-29 = assay: SRB colorimetric assay of cell growth and viability, HT-29; settings: 48 hours exposure; for GI50: read-out: GI50 HT-29; for CC50: read-out: LC50 HT-29
LoVo = assay: SRB colorimetric assay of cell growth and viability, LoVo; settings: 48 hours exposure; for CC50: read-out: LC50 LOVO
LoVo-Dox = assay: SRB colorimetric assay of cell growth and viability, LoVo-Dox; settings: 48 hours exposure; for CC50: read-out: LC50 LOVO-DOX
How it was run: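 48 h continuous exposure, 10 to 10^−8 μg/mL; 5×10^3 cells/well, 18 h attachment; TCA fix, 0.4% SRB, OD 490 nm. Triplicates; GI, TGI, LC derived.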

DU-145 = assay: SRB colorimetric assay of cell growth and viability, DU-145; settings: 48 hours exposure
LNCaP = assay: SRB colorimetric assay of cell growth and viability, LNCaP; settings: 48 hours exposure; for GI50: read-out: GI50 LN-caP; for CC50: read-out: LC50 LN-caP
SK-BR-3 = assay: SRB colorimetric assay of cell growth and viability, SK-BR-3; settings: 48 hours exposure
IGROV-1 = assay: SRB colorimetric assay of cell growth and viability, IGROV-1; settings: 48 hours exposure
IGROV-ET = assay: SRB colorimetric assay of cell growth and viability, IGROV-ET; settings: 48 hours exposure; for CC50: read-out: LC50 IGROV-ET
HeLa = assay: SRB colorimetric assay of cell growth and viability, HeLa; settings: 48 hours exposure; for CC50: read-out: LC50 HELA
HeLa-APL = assay: SRB colorimetric assay of cell growth and viability, HeLa-APL; settings: 48 hours exposure; for CC50: read-out: LC50 HELA-APL
K-562 = assay: SRB colorimetric assay of cell growth and viability, K-562; settings: 48 hours exposure; for CC50: read-out: LC50 K-562
PANC-1 = assay: SRB colorimetric assay of cell growth and viability, PANC-1; settings: 48 hours exposure; for CC50: read-out: LC50 PANC-1

C/C=C1\NC(=O)[C@H](Cc2ccccc2)NC(=O)[C@@H](C(C)C)NC(=O)[C@@H]([C@@H](C)CC)NC(=O)[C@H](NC(=O)[C@H](NC(=O)[C@H](CCCN)NC(=O)[C@H]2CCCN2C(=O)[C@H](NC(=O)[C@@H](NC(=O)[C@@H](NC(=O)[C@H](NC(=O)CCCCC(C)=O)C(C)C)[C@@H](C)O)C(C)C)C(C)C)[C@@H](C)CC)[C@@H](C)OC(=O)[C@H](C(C)C)NC1=O [Compound 27, [6-OHep^14]-KF]
TGI A-549 (A-549): 6.70E−06 Molar | GI50 (A-549): 6.7 µM | CC50 (A-549): 6.7 µM | GI50 (SK-MEL-28): 6.7 µM | TGI MEL-28 (SK-MEL-28): 6.70E−06 Molar | CC50 (SK-MEL-28): 6.7 µM | TGI HT-29 (HT-29): 6.70E−06 Molar | GI50 (HT-29): 6.7 µM | CC50 (HT-29): 6.7 µM | GI50 (LoVo): 3.5 µM | TGI LOVO (LoVo): 6.70E−06 Molar | CC50 (LoVo): 6.7 µM | GI50 (LoVo-Dox): 2.14 µM | TGI LOVO-DOX (LoVo-Dox): 6.70E−06 Molar | CC50 (LoVo-Dox): 6.7 µM | GI50 (DU-145): 6.7 µM | LC50 (concentration causing 50% net cell kill) (DU-145): 6.7 µM | TGI DU-145 (DU-145): 6.70E−06 Molar | TGI LN-caP (LNCaP): 6.70E−06 Molar | GI50 (LNCaP): 6.7 µM | CC50 (LNCaP): 6.7 µM | GI50 (SK-BR-3): 3.16 µM | LC50 (SK-BR-3): 6.7 µM | TGI SK-BR-3 (SK-BR-3): 6.70E−06 Molar | GI50 (IGROV-1): 6.7 µM | LC50 (concentration causing 50% net cell killing) (IGROV-1): 6.7 µM | TGI IGROV (IGROV-1): 6.70E−06 Molar | GI50 (IGROV-ET): 6.7 µM | TGI IGROV-ET (IGROV-ET): 6.70E−06 Molar | CC50 (IGROV-ET): 6.7 µM | GI50 (HeLa): 6.7 µM | TGI HELA (HeLa): 6.70E−06 Molar | CC50 (HeLa): 6.7 µM | GI50 (HeLa-APL): 6.7 µM | TGI HELA-APL (HeLa-APL): 6.70E−06 Molar | CC50 (HeLa-APL): 6.7 µM | GI50 (K-562): 6.7 µM | TGI K-562 (K-562): 6.70E−06 Molar | CC50 (K-562): 6.7 µM | GI50 (PANC-1): 6.7 µM | TGI PANC-1 (PANC-1): 6.70E−06 Molar | CC50 (PANC-1): 6.7 µM

C/C=C1\NC(=O)[C@H](Cc2ccccc2)NC(=O)[C@@H](C(C)C)NC(=O)[C@@H]([C@@H](C)CC)NC(=O)[C@H](NC(=O)[C@H](NC(=O)[C@H](CCCCN)NC(=O)[C@H]2CCCN2C(=O)[C@H](NC(=O)[C@@H](NC(=O)[C@@H](NC(=O)[C@H](NC(=O)CC[C@@H](C)CC)C(C)C)[C@@H](C)O)C(C)C)C(C)C)[C@@H](C)CC)[C@@H](C)OC(=O)[C@H](C(C)C)NC1=O [Compound 30, [Lys^8, (4S)-MeHex^14]-KF]
TGI A-549 (A-549): 2.24E−06 Molar | GI50 (A-549): 1.04 µM | CC50 (A-549): 4.81 µM | GI50 (SK-MEL-28): 1.19 µM | TGI MEL-28 (SK-MEL-28): 2.39E−06 Molar | CC50 (SK-MEL-28): 4.78 µM | TGI HT-29 (HT-29): 2.99E−07 Molar | GI50 (HT-29): 0.173 µM | CC50 (HT-29): 0.517 µM | GI50 (LoVo): 0.135 µM | TGI LOVO (LoVo): 2.45E−07 Molar | CC50 (LoVo): 0.444 µM | GI50 (LoVo-Dox): 0.164 µM | TGI LOVO-DOX (LoVo-Dox): 3.24E−07 Molar | CC50 (LoVo-Dox): 0.639 µM | GI50 (DU-145): 0.329 µM | LC50 (concentration causing 50% net cell kill) (DU-145): 4.2 µM | TGI DU-145 (DU-145): 1.15E−06 Molar | TGI LN-caP (LNCaP): 1.72E−06 Molar | GI50 (LNCaP): 0.804 µM | CC50 (LNCaP): 3.68 µM | GI50 (SK-BR-3): 0.159 µM | LC50 (SK-BR-3): 0.579 µM | TGI SK-BR-3 (SK-BR-3): 3.04E−07 Molar | GI50 (IGROV-1): 0.205 µM | LC50 (concentration causing 50% net cell killing) (IGROV-1): 1.09 µM | TGI IGROV (IGROV-1): 3.87E−07 Molar | GI50 (IGROV-ET): 0.192 µM | TGI IGROV-ET (IGROV-ET): 3.50E−07 Molar | CC50 (IGROV-ET): 0.637 µM | GI50 (HeLa): 0.212 µM | TGI HELA (HeLa): 5.42E−07 Molar | CC50 (HeLa): 2.47 µM | GI50 (HeLa-APL): 0.677 µM | TGI HELA-APL (HeLa-APL): 1.76E−06 Molar | CC50 (HeLa-APL): 4.58 µM | GI50 (K-562): 1.02 µM | TGI K-562 (K-562): 2.28E−06 Molar | CC50 (K-562): 5.07 µM | GI50 (PANC-1): 2.17 µM | TGI PANC-1 (PANC-1): 5.28E−06 Molar | CC50 (PANC-1): 6.7 µM

C/C=C1\NC(=O)[C@H](Cc2ccccc2)NC(=O)[C@@H](C(C)C)NC(=O)[C@@H]([C@@H](C)CC)NC(=O)[C@H](NC(=O)[C@H](NC(=O)[C@H](CCCN)NC(=O)[C@H]2CCCN2C(=O)[C@H](NC(=O)[C@H](CCCN)NC(=O)[C@@H](NC(=O)[C@H](NC(=O)CCCC(C)C)C(C)C)[C@@H](C)O)C(C)C)[C@@H](C)CC)[C@@H](C)OC(=O)[C@H](C(C)C)NC1=O [Compound 49, [Orn^11]-KF] ({Hexanoyl(5-Me)}-[dV]T[Orn][dV][dP][Orn][d(aIle)][d(aThr)][d(aIle)][dV]F[Dhb]V; ester 8-C)
TGI A-549 (A-549): 6.70E−06 Molar | GI50 (A-549): 2.61 µM | CC50 (A-549): 6.7 µM | GI50 (SK-MEL-28): 1.33 µM | TGI MEL-28 (SK-MEL-28): 2.50E−06 Molar | CC50 (SK-MEL-28): 4.69 µM | TGI HT-29 (HT-29): 3.74E−06 Molar | GI50 (HT-29): 1.58 µM | CC50 (HT-29): 6.7 µM | GI50 (LoVo): 1.47 µM | TGI LOVO (LoVo): 3.80E−06 Molar | CC50 (LoVo): 6.7 µM | GI50 (LoVo-Dox): 3.22 µM | TGI LOVO-DOX (LoVo-Dox): 6.70E−06 Molar | CC50 (LoVo-Dox): 6.7 µM | GI50 (DU-145): 1.09 µM | LC50 (concentration causing 50% net cell kill) (DU-145): 5.75 µM | TGI DU-145 (DU-145): 2.50E−06 Molar | TGI LN-caP (LNCaP): 6.70E−06 Molar | GI50 (LNCaP): 2.2 µM | CC50 (LNCaP): 6.7 µM | GI50 (SK-BR-3): 1.94 µM | LC50 (SK-BR-3): 6.7 µM | TGI SK-BR-3 (SK-BR-3): 5.57E−06 Molar | GI50 (IGROV-1): 1.27 µM | LC50 (concentration causing 50% net cell killing) (IGROV-1): 5.97 µM | TGI IGROV (IGROV-1): 2.75E−06 Molar | GI50 (IGROV-ET): 1.91 µM | TGI IGROV-ET (IGROV-ET): 5.15E−06 Molar | CC50 (IGROV-ET): 6.7 µM | GI50 (HeLa): 1.1 µM | TGI HELA (HeLa): 2.20E−06 Molar | CC50 (HeLa): 4.4 µM | GI50 (HeLa-APL): 1.07 µM | TGI HELA-APL (HeLa-APL): 2.52E−06 Molar | CC50 (HeLa-APL): 5.95 µM | GI50 (K-562): 0.15 µM | TGI K-562 (K-562): 1.67E−06 Molar | CC50 (K-562): 6.7 µM | GI50 (PANC-1): 1.31 µM | TGI PANC-1 (PANC-1): 3.09E−06 Molar | CC50 (PANC-1): 6.7 µM
